Experimental data from patent publication US8933099B2, “Monocyclic pyridine derivative” (Eisai R&D Management Co., Ltd., priority 2013, dated 2015).

Columns and labels:
Assay type in all cases: in vivo
[1] = system: human stomach cancer cell line SNU-16 xenograft; test: Antitumor effect in SNU-16 subcutaneous xenograft model in mice; settings: oral, once a day for 11 days, tumor volume last day
Source text: Human stomach cancer cell line SNU-16, which had been cultured in an RPMI-1640 medium containing 10% FBS, and penicillin and streptomycin, were adjusted to a concentration of 1×10^8 cells/mL with Hanks' Balanced Salt Solution (GIBCO #24020) to prepare a cell suspension, and the suspension was mixed with […] (BD Biosciences, Cat#354234) in a ratio of 1:1 to prepare a cell suspension in a concentration of 5×10^7 cells/ml. The cell suspension was inoculated in a volume of 100 ut into a subcutaneous part of a right flank of nude mice, 6 to 7 weeks of ages (BALB/cAiel-nu/nu, female, Clea Japan Inc.). Seven days after cell inoculation, the shortest diameter and the longest diameter of a tumor in each mouse were measured by using an electronic digital caliper (Digimatie™ caliper, Mitutoyo Corporation), so as to calculate the volume of the tumor in accordance with the following calculation formula: Tumor volume(mm^3)Longest diameter(mm)×Shortest diameter(mm)×Shortest diameter(mm)/2
(§1) On the basis of the volumes of tumors obtained on the first day of administration, the nude mice were grouped such that averages of the tumor volumes were substantially equal among the groups. Each test substance was dissolved in DMSO, Tween 80 was added thereto to prepare a solution in a 10-fold concentration and the thus prepared solution was stored at the freezer before use. Immediately before the administration, the stock solution was diluted with a 5% glucose solution to obtain a final administration solution (in which a ratio in % among DMSO, Tween 80 and the 5% glucose solution was 3.5:6.5:90). Each evaluation sample was orally administered to test substance administration group at a volume of 0.4 mL per 20 g of body weight once a day continuously for 11 days, and in a control group, an administration solvent was orally administered under the same conditions. Incidentally, the experiment was conducted on groups each consisting of 5 mice.
(§2) With respect to each of the control group and test substance administration group, a ratio of the weight measured on the final day to the weight measured on the first day (relative body weight: RBW) was calculated. If a ratio of the RBW of the test substance administration group/the RBW of the control group is 0.9 or mom, the corresponding test substance administration group was defined as a well-tolerated. In the test substance administration group thus defined as well-tolerated, a ratio of the tumor volume of the test substance-dosing group to the tumor volume of the control group obtained on the last day (TIC) (%) was calculated, and shown in Table 21.

[2] = system: human lung cancer cell line NCI-H1581 xenograft; test: Antitumor effect in NCI-H1581 subcutaneous xenograft model in mice; settings: oral, once a day for 11 days, tumor volume last day
Procedure: Human lung cancer cell line NCI-H1581, which had been cultured in RPMI-1640 medium containing 10% FBS, and penicillin and streptomycin, were adjusted to a concentration of 1×10^8 cells/mL with Hanks' Balanced Salt Solution(GIBCO #24020) to prepare a cell suspension, and the suspension was mixed with […] in a ratio of 1:1 to prepare a cell suspension in a concentration of 5×10^7 cells/mL. The cell suspension was inoculated in a volume of 100 μL into a subcutaneous part of a right flank of each of nude mice, 6 to 7 weeks of ages (BALB/cAJcl-nu/nu, female, Clea Japan Inc.). Ten to 11 days after the cell inoculation, the shortest diameter and the longest diameter of a tumor in each mouse were measured by using an electronic digital caliper (Digimatic™ caliper, Mitutoyo Corporation), so as to calculate the volume of the tumor in accordance with the following calculation formula: Tumor volume(mm^3)=Longest diameter(mm)×Shortest diameter(mm)×Shortest diameter(mm)/2
as §1
as §2, with “more,” for “mom,”, “22.” for “21.”

[3] = system: human endometrial cancer cell line MFE280 xenograft; test: Antitumor effect in MFE280 subcutaneous xenograft model in mice; settings: oral, once a day for 14 days, tumor volume last day
Source text: Human endometrial cancer cell line MFE280 (DSMZ Number ACC-410), which had been cultured in an RPMI-1640 medium containing 10% FBS, and penicillin and streptomycin, were adjusted to a concentration of 4.7×10^7 cells/mL with Hanks' Balanced Salt Solution (GIBCO 1124020) to prepare a cell suspension, and the suspension was mixed with […] (BD Biosciences, Cat#354234) in a ratio of 1:1 to prepare a cell suspension in a concentration of 2.4×10^7 cells/ml. The cell suspension was inoculated in a volume of 100 μL into a subcutaneous part of a right flank of nude mice, 7 weeks of age (BALB/cAJcl-nu/nu, female, Clea Japan Inc.). Thirty five days after cell inoculation, the shortest diameter and the longest diameter of a tumor in each mouse were measured by using an electronic digital caliper (Digimatic™ caliper, Mitutoyo Corporation), so as to calculate the volume of the tumor in accordance with the following calculation formula: Tumor volume(mm^3)=Longest diameter(mm)×Shortest diameter(mm)×Shortest diameter(mm)/2
as §1, with “fast” for “first”, “14” for “11”
as §2, with “more,” for “mom,”, “28.” for “21.”

Compound: CNC(=O)n1ccc2cc(Oc3ccnc(NC(=O)c4ccc(C5CCN(CCO)CC5)cc4)c3)c(OCCOC)cc21 [Example 22, 5-((2-(4-(1-(2-Hydroxyethyl)piperidin-4-yl)benzamide)pyridin-4-yl)oxy)-6-(2-methoxyethoxy)-N-methyl-1H-indole-1-carboxamide]
- T/C (%) ([1]; 6.25 mg/kg): 49%
- T/C (%) ([1]; 12.5 mg/kg): 26%
- T/C (%) ([1]; 25 mg/kg): 17%
- T/C (%) ([1]; 50 mg/kg): 18%
- T/C (%) ([2]; 6.25 mg/kg): 46%
- T/C (%) ([2]; 12.5 mg/kg): 21%
- T/C (%) ([2]; 25 mg/kg): 13%
- T/C (%) ([2]; 50 mg/kg): 8%
- T/C (%) ([3]; 6.25 mg/kg): 72%
- T/C (%) ([3]; 12.5 mg/kg): 57%
- T/C (%) ([3]; 25 mg/kg): 31%
- T/C (%) ([3]; 50 mg/kg): 11%
